Read-outs that look alike come from different tables or passages of the source.
Assays:
C. tropicalis = test: Toxicity tests of additional substrates (absorbance at 600 nm); assay type: cell-based; conditions: 24 hours, added without solvent
Procedure: Additional substrates were to be tested for bioconversion following a slightly different protocol than the one noted above in Example 3. Those substrates also had to be tested for toxicity similar to the test described in Example 2, to determine the highest concentration at which a substrate could be added to a culture broth without being toxic, inhibiting growth, or interfering with the bioconversion process. C. tropicalis was grown in the presence of the substrate at three different concentrations and growth was monitored spectrophotometrically. In contrast to Example 2, all test substrates were added directly to the culture medium without dissolving in solvent. The tests were completed as follows:
On the first day, H5343 was grown in YPD medium (25.0 ml seed culture) overnight on a rotary shaker at 30° C. and 250 rpm. The next day 1.0 ml of the seed culture was used to inoculate a new flask of 50 ml YPD. This culture was grown overnight on a rotary shaker at 30° C. and 250 rpm. […]
Two control flasks were each inoculated with H5343 in 25 ml YPD. All flasks were incubated on a rotary shaker at 30° C. and 250 rpm.
After 24 hours incubation, the absorbance at 600 nm of the test and control flask cultures was determined, using uninoculated YPD broth as blank. Cultures were diluted so that the OD^600 nm measured between 0.15 and 0.3.
For strongly inhibitory substrates, a concentration of 0.1-0.2% was chosen for the bioconversion tests.

[1] = test system: C. tropicalis strain H5343; test: Toxicity tests of substrates (growth by absorbance at 600 nm, streak plates); assay type: cell-based; conditions: 48 h, 30° C., dilution in YPD 1:100
Procedure: The toxicity test used here was similar to that used for the solvents described in Example 1. The goal was to determine the highest concentration at which a substrate could be added to a culture broth without being toxic, inhibiting growth, or interfering with the bioconversion process. C. tropicalis strain H5343 was grown in the presence of the substrate at different concentrations and growth was monitored spectrophotometrically. In order to determine if the substrate was lethal or was simply inhibiting growth, the cultures were examined under the microscope and streak plates of YPD and LB agar were prepared. Contamination of the culture with an unwanted organism could also be detected using this approach.
6 ml was transferred to the first tube and 3 ml to the rest. 1% substrate was added to the first tube and then serially diluted to give concentrations from 1% to 0.015%. Since the last tube was initially empty, the concentration in the last two tubes was the same. […] As a growth-control one culture without substrate was inoculated.
To determine if contamination had occurred, each culture was examined under the microscope and streak plates of both YPD and LB were made from the 1% and the inoculated 0.015% tube.

[2] = test system: C. tropicalis strain H5343; conditions: for nontoxic concentration of solvent: growth of strain H5343; for ABS Lambda = 600.0 nm: 24 h, 30° C., dilution in YPD 1:100

| Structure (SMILES) | Absorbance at 600 nm (C. tropicalis; substrate concentration 0.1%) | Absorbance at 600 nm (C. tropicalis; substrate concentration 0.5%) | Absorbance at 600 nm (C. tropicalis; substrate concentration 1.0%) | nontoxic concentration of solvent [2] [%] | ABS Lambda = 600.0 nm ([2]; solvent concentration 0.25%) | ABS Lambda = 600.0 nm ([2]; solvent concentration 0.5%) | ABS Lambda = 600.0 nm ([2]; solvent concentration 1%) | ABS Lambda = 600.0 nm ([2]; solvent concentration 2%) | ABS Lambda = 600.0 nm ([2]; solvent concentration 4%) | further results |
| --- | --- | --- | --- | --- | --- | --- | --- | --- | --- | --- |
| CCCCCCCCC(CO)CCCCCC (stereo not shown) [2-Hexyl-1-decanol] | 24.43 | 19.73 | 11.93 |  |  |  |  |  |  | ABS 600.0 nm ([1]; substrate concentration 0.01563%): 0.120; ABS 600.0 nm ([1]; substrate concentration 0.0313%): 0.145; ABS 600.0 nm ([1]; substrate concentration 0.063%): 0.110; ABS 600.0 nm ([1]; substrate concentration 0.13%): 0.273; ABS 600.0 nm ([1]; substrate concentration 0.25%): 0.145; ABS 600.0 nm ([1]; substrate concentration 0.5%): 0.122; ABS 600.0 nm ([1]; substrate concentration 1%): 0.117 |
| CC(C)=O [Acetone] |  |  |  | ≤ 4 | 0.123 | 0.183 | 0.111 | 0.149 | 0.087 |  |
| CCO [Ethanol] |  |  |  | 4 | 0.122 | 0.104 | 0.137 | 0.119 | 0.090 |  |
| CCCCCC [Hexane] |  |  |  | 2 | 0.119 | 0.148 | 0.119 | 0.126 | 0.005 |  |
| CC1CCCCC1 [Methylcyclohexane] |  |  |  |  |  |  |  |  |  | Absorbance at 600 nm (C. tropicalis; substrate concentration 0.06%): 13.7; Absorbance at 600 nm (C. tropicalis; substrate concentration 0.3%): 15.6; Absorbance at 600 nm (C. tropicalis; substrate concentration 0.6%): 0.16 |
| CCCCCOCCCCC [Pentyl Ether, Dipentyl Ether] | 2.033 | 1.863 | 1.813 |  |  |  |  |  |  |  |
| CCCC1CCCCC1 [Propylcyclohexane] | 44.13 | 34.12 | 1.201 |  |  |  |  |  |  |  |

Reference: US7405063B2, “Biooxidation capabilities of Candida sp” (Cognis Corporation, priority 2000, dated 2008)
